Tests used:
Type in all cases: cell-based
[1] = tested on: K-562 (leukemia); experiment: NCI-60 SRB cytotoxicity screen; conditions: Homo sapiens; K-652 [sic], single dose 10 μM; read-out: growth inhibition (GI%)
[2] = tested on: SK-MEL-5 (melanoma); experiment: NCI-60 SRB cytotoxicity screen; conditions: Homo sapiens; SK-MEL-5, single dose 10 μM; read-out: growth inhibition (GI%)
[3] = tested on: SNB-19 (CNS cancer); experiment: NCI-60 SRB cytotoxicity screen; conditions: Homo sapiens; SNB-19, single dose 10 μM; read-out: growth inhibition (GI%)
[4] = tested on: ACHN (renal cancer); experiment: NCI-60 SRB cytotoxicity screen; conditions: Homo sapiens, single dose 10 μM, read-out: growth inhibition (GI%)
[5] = tested on: HCT-15 (colon cancer); experiment: NCI-60 SRB cytotoxicity screen; conditions: Homo sapiens; HCT-15, single dose 10 μM; read-out: growth inhibition (GI%)
[6] = tested on: UO-31 (renal cancer); experiment: NCI-60 SRB cytotoxicity screen; conditions: Homo sapiens; UO-31, single dose 10 μM; read-out: growth inhibition (GI%)
[7] = tested on: HL-60(TB) (leukemia); experiment: NCI-60 SRB cytotoxicity screen; conditions: Homo sapiens, single dose 10 μM, read-out: growth inhibition (GI%)
[8] = tested on: MCF7 (breast cancer); experiment: NCI-60 SRB cytotoxicity screen; conditions: Homo sapiens; MCF7, single dose 10 μM; read-out: growth inhibition (GI%)
[9] = tested on: SF-539 (CNS cancer); experiment: NCI-60 SRB cytotoxicity screen; conditions: Homo sapiens; SF-539, single dose 10 μM; read-out: growth inhibition (GI%)
[10] = tested on: SF-268 (CNS cancer); experiment: NCI-60 SRB cytotoxicity screen; conditions: Homo sapiens; SF-268, single dose 10 μM; read-out: growth inhibition (GI%)
[11] = tested on: CCRF-CEM (leukemia); experiment: NCI-60 SRB cytotoxicity screen; conditions: Homo sapiens, single dose 10 μM, read-out: growth inhibition (GI%)
[12] = tested on: BT-549 (breast cancer); experiment: NCI-60 SRB cytotoxicity screen; conditions: Homo sapiens; BT-549, single dose 10 μM; read-out: growth inhibition (GI%)
[13] = tested on: HS 578T (breast cancer); experiment: NCI-60 SRB cytotoxicity screen; conditions: Homo sapiens, single dose 10 μM, read-out: growth inhibition (GI%)
[14] = tested on: A549/ATCC (non-small cell lung cancer); experiment: NCI-60 SRB cytotoxicity screen; conditions: Homo sapiens, single dose 10 μM, read-out: growth inhibition (GI%)
[15] = tested on: T-47D (breast cancer); experiment: NCI-60 SRB cytotoxicity screen; conditions: Homo sapiens, T47D, single dose 10 μM, read-out: growth inhibition (GI%)
[16] = tested on: NCI-H322M (non-small cell lung cancer); experiment: NCI-60 SRB cytotoxicity screen; conditions: Homo sapiens, single dose 10 μM, read-out: growth inhibition (GI%)
[17] = tested on: MDA-MB-468 (breast cancer); experiment: NCI-60 SRB cytotoxicity screen; conditions: Homo sapiens; MDA-MB-468, single dose 10 μM; read-out: growth inhibition (GI%)
How it was run: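 NCI-60 single-dose (10^−5 M) screen in MDA-MB-468 with SRB protein-stain read-out after 48 h exposure; cells TCA-fixed and absorbance read at 540 nm. Reported as GI%, with compounds meeting NCI activity criteria then run at five doses (0.01–100 μM).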

[18] = tested on: RXF 393 (renal cancer); experiment: NCI-60 SRB cytotoxicity screen; conditions: Homo sapiens; RXF 393, single dose 10 μM; read-out: growth inhibition (GI%)
[19] = tested on: UACC-62 (melanoma); experiment: NCI-60 SRB cytotoxicity screen; conditions: Homo sapiens; UACC-62, single dose 10 μM; read-out: growth inhibition (GI%)
[20] = tested on: 60 cancer cell lines (NCI); experiment: NCI-60 single-dose screen, overall verdict over the panel; conditions: single dose 10 μM, whole panel
How it was run: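 Compounds were tested at a single 10^−5 M dose across the NCI 60 cell line panel, with cells preincubated 24 h before treatment. Viability was measured by TCA fixation and sulforhodamine B staining, absorbance 540 nm. % cytotoxicity = [1 − (sample/negative control absorbance)] × 100.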

[21] = tested on: NCI-H460 (non-small cell lung cancer); experiment: NCI-60 SRB cytotoxicity screen; conditions: Homo sapiens; NCI-H460, single dose 10 μM; read-out: growth inhibition (GI%)
[22] = tested on: OVCAR-8 (ovarian cancer); experiment: NCI-60 SRB cytotoxicity screen; conditions: Homo sapiens; OVCAR-8, single dose 10 μM; read-out: growth inhibition (GI%)
[23] = tested on: HOP-62 (non-small cell lung cancer); experiment: NCI-60 SRB cytotoxicity screen; conditions: Homo sapiens; HOP-62, single dose 10 μM; read-out: growth inhibition (GI%)
[24] = tested on: U251 (CNS cancer); experiment: NCI-60 SRB cytotoxicity screen; conditions: Homo sapiens, U-251; U251, single dose 10 μM; read-out: growth inhibition (GI%)
[25] = tested on: NCI-H522 (non-small cell lung cancer); experiment: NCI-60 SRB cytotoxicity screen; conditions: Homo sapiens; NCI-H522, single dose 10 μM; read-out: growth inhibition (GI%)
[26] = tested on: OVCAR-5 (ovarian cancer); experiment: NCI-60 SRB cytotoxicity screen; conditions: Homo sapiens; OVCAR-5, single dose 10 μM; read-out: growth inhibition (GI%)
[27] = tested on: NCI-H23 (non-small cell lung cancer); experiment: NCI-60 SRB cytotoxicity screen; conditions: Homo sapiens; NCI-H23, single dose 10 μM; read-out: growth inhibition (GI%)
[28] = tested on: MDA-MB-435 (melanoma); experiment: NCI-60 SRB cytotoxicity screen; conditions: Homo sapiens, MDA-MB-435, read-out: growth inhibition (GI%);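 note: growth inhibition in percent at a single 10 µM dose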
[29] = tested on: OVCAR-4 (ovarian cancer); experiment: NCI-60 SRB cytotoxicity screen; conditions: Homo sapiens; OVCAR-4, single dose 10 μM; read-out: growth inhibition (GI%)
[30] = tested on: SK-OV-3 (ovarian cancer); experiment: NCI-60 SRB cytotoxicity screen; conditions: Homo sapiens; SK-OV-3, single dose 10 μM; read-out: growth inhibition (GI%)
[31] = tested on: SK-MEL-2 (melanoma); experiment: NCI-60 SRB cytotoxicity screen; conditions: Homo sapiens; SK-MEL-2, single dose 10 μM; read-out: growth inhibition (GI%)

Row | Structure (SMILES) | inhibition at 10 µM [1] [%] | inhibition at 10 µM [2] [%] | inhibition at 10 µM [3] [%] | inhibition at 10 µM [4] [%] | inhibition at 10 µM [5] [%] | inhibition at 10 µM [6] [%] | inhibition at 10 µM [7] [%] | inhibition at 10 µM [8] [%] | inhibition at 10 µM [9] [%] | inhibition at 10 µM [10] [%] | inhibition at 10 µM [11] [%] | inhibition at 10 µM [12] [%] | inhibition at 10 µM [13] [%] | inhibition at 10 µM [14] [%] | inhibition at 10 µM [15] [%] | inhibition at 10 µM [16] [%] | inhibition at 10 µM [17] [%] | inhibition at 10 µM [18] [%] | inhibition at 10 µM [19] [%] | cytotoxic activity over the cell lines (in words) [20] | further results
1 | CCc1cccc2cc(-c3cc(-c4ccc(F)cc4)[nH]c(=O)c3C#N)c(Cl)nc12 [Compound 4d, 4-(2-Chloro-8-ethylquinolin-3-yl)-6-(4-fluorophenyl)-2-oxo-1,2-dihydropyridine-3-carbonitrile] | 27.2 | 16.8 | < 10 | < 10 | 11.1 | 27.9 | < 10 | 24.6 | < 10 | < 10 | < 10 | 17.8 | < 10 | < 10 | 14.4 | < 10 | < 10 | < 10 | 16.5 | mild cytotoxic activity | inhibition at 10 µM [21]: < 10%; inhibition at 10 µM [22]: < 10%; inhibition at 10 µM [23]: < 10%; inhibition at 10 µM [24]: < 10%; inhibition at 10 µM [25]: < 10%; inhibition at 10 µM [26]: < 10%; inhibition at 10 µM [27]: 12%; inhibition at 10 µM [28]: < 10%; inhibition at 10 µM [29]: 11%; inhibition at 10 µM [30]: < 10%; inhibition at 10 µM [31]: < 10%
2 | CCc1cccc2cc(C3C=C(c4ccc(Br)cc4)NC(=S)N3)c(Cl)nc12 (stereo not drawn) [Compound 6e, 6-(4-Bromophenyl)-4-(2-chloro-8-ethylquinolin-3-yl)-3,4-dihydropyrimidine-2(1H)-thione] | < 10 | < 10 | < 10 | < 10 | < 10 | 32.7 | < 10 | 18.4 | < 10 | < 10 | < 10 | < 10 | < 10 | < 10 | < 10 | < 10 | < 10 | < 10 | < 10 | limited cytotoxic activity | inhibition at 10 µM [21]: < 10%; inhibition at 10 µM [22]: < 10%; inhibition at 10 µM [23]: < 10%; inhibition at 10 µM [24]: < 10%; inhibition at 10 µM [25]: < 10%; inhibition at 10 µM [26]: < 10%; inhibition at 10 µM [27]: < 10%; inhibition at 10 µM [28]: < 10%; inhibition at 10 µM [29]: 10.2%; inhibition at 10 µM [30]: 10.7%; inhibition at 10 µM [31]: < 10%
3 | CCc1cccc2cc(-c3cc(-c4ccc(F)cc4)[nH]c(=S)c3C#N)c(Cl)nc12 [Compound 5d, 4-(2-Chloro-8-ethylquinolin-3-yl)-6-(4-fluorophenyl)-2-thioxo-1,2-dihydropyridine-3-carbonitrile] | 29.3 | 15.3 | 10.5 | < 10 | 14.8 | 40.1 | < 10 | 40.4 | < 10 | 21 | < 10 | 12.2 | 18.2 | < 10 | 21.1 | 12.4 | 14 | < 10 | 25.7 | slight cytotoxic activity | inhibition at 10 µM [21]: < 10%; inhibition at 10 µM [22]: < 10%; inhibition at 10 µM [23]: < 10%; inhibition at 10 µM [24]: < 10%; inhibition at 10 µM [25]: 11.8%; inhibition at 10 µM [26]: < 10%; inhibition at 10 µM [27]: 16.4%; inhibition at 10 µM [28]: < 10%; inhibition at 10 µM [29]: 13.3%; inhibition at 10 µM [30]: 20.9%; inhibition at 10 µM [31]: < 10%
